Target: T1, human type 5 17β-HSD (Homo sapiens, UniProt P42330)
T1 construct: encodes a protein having 323 amino acids with a calculated molecular weight of 36,844 daltons; expressed in transfected cells; host or cells: human embryonal kidney 293 cells (ATCC CRL 1573), transient transfection with pCMV vector
T1 sequence (P42330 1-323 H5Q): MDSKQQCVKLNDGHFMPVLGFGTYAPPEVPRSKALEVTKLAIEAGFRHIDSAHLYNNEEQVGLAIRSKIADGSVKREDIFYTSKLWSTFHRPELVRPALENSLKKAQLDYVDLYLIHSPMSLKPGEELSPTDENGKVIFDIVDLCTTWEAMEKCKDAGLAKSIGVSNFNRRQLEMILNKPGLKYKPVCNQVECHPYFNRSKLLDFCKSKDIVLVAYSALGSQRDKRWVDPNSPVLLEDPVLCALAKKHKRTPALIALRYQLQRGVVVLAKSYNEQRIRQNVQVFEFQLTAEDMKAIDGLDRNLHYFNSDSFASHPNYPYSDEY
Experiment: Assay of enzymatic activity (substrate specificity) in 293 cells transfected with human type 5 17β-HSD
Type: cell-based
Settings: 0.1 μM 14C-labeled substrate, 1 hour incubation, transfected embryonal kidney (293) cells, FIG. 1A
Method: The concentration of each substrate was 0.1 μM. […] The substrates, progesterone (P) and Δ^4 -dione, were added at a concentration of 0.1 μM;
The vectors were transfected using the calcium phosphate procedure described by Kingston, R. E., In: Current Protocols in Molecular Biology, Ausubel et al. eds., pp. 9.1.1-9.1.9, John Wiley & Sons, N.Y. (1987) and used 1 to 10 μg of recombinant plasmid DNA per 10^6 cells. The total amount of DNA is kept at 10 μg of plasmid DNA per 10^6 cells by completing with pCMV plasmid without insert. The cells were initially plated at 10^4 cells/cm^2 in Falcon® culture flasks and grown in Dulbecco's modified Eagle's medium containing 10% (vol/vol) fetal bovine serum (hyclone, Logan, Utah) under a humidified atmosphere of air/CO^2 (95%/5%) at 37° C. and supplemented with 2 mM L-glutamine, 1 mM sodium pyruvate, 100 IU penicillin/ml, and 100 μbg streptomycin sulfate/ml.
See also Lachance et al., J. Biol. Chem., 265:20469-20475 (1990). […] After incubation for 1 hour, the steroids were extracted twice with 2 ml of ether. The organic phase was pooled and evaporated to dryness. The steroids were solubilized in 50 μl of dichloromethane, applied to a Silica gel 60 thin layer chromatography (TLC) plate (Merck, Darmstad, Germany) and then separated by migration in the toluene-acetone (4:1) solvent system (Luu-The, V. et al., J. Invest. Dennatol., 102:221-226 (1994) which is herein incorporated by reference).
As described above, the enzymatic activity of the type 5 17β-HSD was evaluated by transfecting 293 cells with vectors which included the gene encoding human type 5 17β-HSD.

Q: How did the “17β-HSD activity (Δ4-dione converted to testosterone)” value turn out when `C[C@]12CCC(=O)C=C1CC[C@@H]1[C@@H]2CC[C@]2(C)C(=O)CC[C@@H]12` [Δ^4dione, 4-androstene-3,17-dione] was run?
A: high

Q: With `CC(=O)[C@H]1CC[C@H]2[C@@H]3CCC4=CC(=O)CC[C@]4(C)[C@H]3CC[C@]12C` [progesterone] as the molecule, how does the “reductive 20α-HSD activity (progesterone transformed to 20α-OH-P)” value read?
A: high

Q: With `C[C@]12CCC(=O)C[C@@H]1CC[C@@H]1[C@@H]2CC[C@]2(C)[C@@H](O)CC[C@@H]12` [DHT, dihydrotestosterone] as the molecule, how does the “3α-HSD activity (transformation of DHT to 5α-androstane-3α,17β-diol)” value read?
A: negligible

Q: How did the “ability of the enzyme to transform E1 and E2” value turn out when `C[C@]12CC[C@@H]3c4ccc(O)cc4CC[C@H]3[C@@H]1CC[C@@H]2O` [E2, estradiol] was run?
A: negligible

Source: patent US6124115A, “Production and use of isolated type 5 17β-hydroxysteroid dehydrogenase” (Endorecherche Inc., priority 1995, dated 2000)
